From patent US20230123334A1, “AMINO LIPID COMPOUND, PREPARATION METHOD THEREFOR, AND APPLICATION THEREOF” (SHENZHEN SHENXIN BIOTECHNOLOGY CO., LTD., priority 2020, published 2023)

System: HEK293 cells
Assay: Preliminary screening as mRNA vectors, EGFP mRNA transfection of HEK293 cells
Assay type: cell-based
Conditions: EGFP mRNA 50 ng per well, 96-well plates; percentage of GFP fluorescent cells relative to total number of cells (Hoechst)
Summary of the method: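 Screening format: EGFP mRNA transfection (50 ng/well) into HEK293 in 10% FBS-supplemented DMEM. Percent green fluorescent cells, normalised to Hoechst nuclear count, gave the value; Lipofectamine2000 was the reference transfectant.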

Compound	Absolute mRNA transfection efficiency in HEK293 cells [%]
CCCCCCCCCCCCCCCCCCSc1nc(NCCCCCCCCCCC)nc(NCCCN(C)C)n1 [Compound D6S18N11]	5.7
CCCCCCCCCCCCCCCCCCSc1nc(NCCCCCCCCCCCC)nc(NCCCN(C)C)n1 [Compound D6S18N12]	2.6
CCCCCCCCCCCCCCCCCCSc1nc(NCCCCCCCCCCCCC)nc(NCCCN(C)C)n1 [Compound D6S18N13]	1.0
CCCCCCCCCCCCCCCCCCSc1nc(NCCCCCCCCCCCCCCC)nc(NCCCN(C)C)n1 [Compound D6S18N15]	0.0
CCCCCCCCCCCCCCCCCCSc1nc(NCCCCCCCCCCCCCCCC)nc(NCCCN(C)C)n1 [Compound D6S18N16]	0.0
CCCCCCCCCCCCCCCCCCNc1nc(NCCCN(C)C)nc(SCCCCCCCCCCCCCCCCCC)n1 [Compound D6S18N18]	0.0
CCCCCCNc1nc(NCCN(CC)CC)nc(SCCCCCC)n1 [Compound D7S6N6]	1.2
CCCCCCCNc1nc(NCCN(CC)CC)nc(SCCCCCC)n1 [Compound D7S6N7]	0.0
CCCCCCCCNc1nc(NCCN(CC)CC)nc(SCCCCCC)n1 [Compound D7S6N8]	3.5
CCCCCCCCCNc1nc(NCCN(CC)CC)nc(SCCCCCC)n1 [Compound D7S6N9]	2.4
CCCCCCCCCCCNc1nc(NCCN(CC)CC)nc(SCCCCCC)n1 [Compound D7S6N11]	3.8
CCCCCCCCCCCCNc1nc(NCCN(CC)CC)nc(SCCCCCC)n1 [Compound D7S6N12]	1.4
CCCCCCCCCCCCCNc1nc(NCCN(CC)CC)nc(SCCCCCC)n1 [Compound D7S6N13]	2.6
CCCCCCCCCCCCCCCNc1nc(NCCN(CC)CC)nc(SCCCCCC)n1 [Compound D7S6N15]	2.2
CCCCCCCCCCCCCCCCNc1nc(NCCN(CC)CC)nc(SCCCCCC)n1 [Compound D7S6N16]	3.0
CCCCCCCCCCCCCCCCCCNc1nc(NCCN(CC)CC)nc(SCCCCCC)n1 [Compound D7S6N18]	4.6
CCCCCCSc1nc(NCCN(CC)CC)nc(SCCCCCC)n1 [Compound D7S6S6]	19.5
CCCCCCCSc1nc(NCCN(CC)CC)nc(SCCCCCC)n1 [Compound D7S6S7]	22.9
CCCCCCCCSc1nc(NCCN(CC)CC)nc(SCCCCCC)n1 [Compound D7S6S8]	18.9
CCCCCCCCCSc1nc(NCCN(CC)CC)nc(SCCCCCC)n1 [Compound D7S6S9]	4.2
CCCCCCCCCCSc1nc(NCCN(CC)CC)nc(SCCCCCC)n1 [Compound D7S6S10]	2.7
CCCCCCCCCCCSc1nc(NCCN(CC)CC)nc(SCCCCCC)n1 [Compound D7S6S11]	0.5

Compound	Absolute mRNA transfection efficiency in HEK293 cells [%]
CCCCCCCCCCCCSc1nc(NCCN(CC)CC)nc(SCCCCCC)n1 [Compound D7S6S12]	8.1
CCCCCCCCCCCCCCSc1nc(NCCN(CC)CC)nc(SCCCCCC)n1 [Compound D7S6S14]	3.8
CCCCCCCCCCCCCCCSc1nc(NCCN(CC)CC)nc(SCCCCCC)n1 [Compound D7S6S15]	1.3
CCCCCCCCCCCCCCCCSc1nc(NCCN(CC)CC)nc(SCCCCCC)n1 [Compound D7S6S16]	2.3
CCCCCCCCCCCCCCCCCCSc1nc(NCCN(CC)CC)nc(SCCCCCC)n1 [Compound D7S6S18]	9.5
CCCCCCCSc1nc(NCCCCCC)nc(NCCN(CC)CC)n1 [Compound D7S7N6]	2.3
CCCCCCCNc1nc(NCCN(CC)CC)nc(SCCCCCCC)n1 [Compound D7S7N7]	3.9
CCCCCCCCNc1nc(NCCN(CC)CC)nc(SCCCCCCC)n1 [Compound D7S7N8]	3.5
CCCCCCCCCNc1nc(NCCN(CC)CC)nc(SCCCCCCC)n1 [Compound D7S7N9]	10.5
CCCCCCCCCCCNc1nc(NCCN(CC)CC)nc(SCCCCCCC)n1 [Compound D7S7N11]	11.1
CCCCCCCCCCCCNc1nc(NCCN(CC)CC)nc(SCCCCCCC)n1 [Compound D7S7N12]	3.6
CCCCCCCCCCCCCNc1nc(NCCN(CC)CC)nc(SCCCCCCC)n1 [Compound D7S7N13]	1.2
CCCCCCCCCCCCCCCNc1nc(NCCN(CC)CC)nc(SCCCCCCC)n1 [Compound D7S7N15]	18.5
CCCCCCCCCCCCCCCCNc1nc(NCCN(CC)CC)nc(SCCCCCCC)n1 [Compound D7S7N16]	12.8
CCCCCCCCCCCCCCCCCCNc1nc(NCCN(CC)CC)nc(SCCCCCCC)n1 [Compound D7S7N18]	16.7
CCCCCCCSc1nc(NCCN(CC)CC)nc(SCCCCCCC)n1 [Compound D7S7S7]	18.4
CCCCCCCCSc1nc(NCCN(CC)CC)nc(SCCCCCCC)n1 [Compound D7S7S8]	42.1
CCCCCCCCCSc1nc(NCCN(CC)CC)nc(SCCCCCCC)n1 [Compound D7S7S9]	13.5
CCCCCCCCCCSc1nc(NCCN(CC)CC)nc(SCCCCCCC)n1 [Compound D7S7S10]	1.7
CCCCCCCCCCCSc1nc(NCCN(CC)CC)nc(SCCCCCCC)n1 [Compound D7S7S11]	4.5
CCCCCCCCCCCCSc1nc(NCCN(CC)CC)nc(SCCCCCCC)n1 [Compound D7S7S12]	5.8
CCCCCCCCCCCCCCSc1nc(NCCN(CC)CC)nc(SCCCCCCC)n1 [Compound D7S7S14]	4.1

Compound	Absolute mRNA transfection efficiency in HEK293 cells [%]
CCCCCCCCCCCCCCCSc1nc(NCCN(CC)CC)nc(SCCCCCCC)n1 [Compound D7S7S15]	5.4
CCCCCCCCCCCCCCCCSc1nc(NCCN(CC)CC)nc(SCCCCCCC)n1 [Compound D7S7S16]	10.7
CCCCCCCCCCCCCCCCCCSc1nc(NCCN(CC)CC)nc(SCCCCCCC)n1 [Compound D7S7S18]	7.1
CCCCCCCCSc1nc(NCCCCCC)nc(NCCN(CC)CC)n1 [Compound D7S8N6]	0.8
CCCCCCCCSc1nc(NCCCCCCC)nc(NCCN(CC)CC)n1 [Compound D7S8N7]	0.7
CCCCCCCCNc1nc(NCCN(CC)CC)nc(SCCCCCCCC)n1 [Compound D7S8N8]	2.5
CCCCCCCCCNc1nc(NCCN(CC)CC)nc(SCCCCCCCC)n1 [Compound D7S8N9]	9.5
CCCCCCCCCCCNc1nc(NCCN(CC)CC)nc(SCCCCCCCC)n1 [Compound D7S8N11]	9.0
CCCCCCCCCCCCNc1nc(NCCN(CC)CC)nc(SCCCCCCCC)n1 [Compound D7S8N12]	9.5
CCCCCCCCCCCCCNc1nc(NCCN(CC)CC)nc(SCCCCCCCC)n1 [Compound D7S8N13]	14.2
CCCCCCCCCCCCCCCNc1nc(NCCN(CC)CC)nc(SCCCCCCCC)n1 [Compound D7S8N15]	15.7
CCCCCCCCCCCCCCCCNc1nc(NCCN(CC)CC)nc(SCCCCCCCC)n1 [Compound D7S8N16]	16.8
CCCCCCCCCCCCCCCCCCNc1nc(NCCN(CC)CC)nc(SCCCCCCCC)n1 [Compound D7S8N18]	12.8
CCCCCCCCSc1nc(NCCN(CC)CC)nc(SCCCCCCCC)n1 [Compound D7S8S8]	25.3
CCCCCCCCCSc1nc(NCCN(CC)CC)nc(SCCCCCCCC)n1 [Compound D7S8S9]	11.1
CCCCCCCCCCSc1nc(NCCN(CC)CC)nc(SCCCCCCCC)n1 [Compound D7S8S10]	7.6
CCCCCCCCCCCSc1nc(NCCN(CC)CC)nc(SCCCCCCCC)n1 [Compound D7S8S11]	3.2
CCCCCCCCCCCCSc1nc(NCCN(CC)CC)nc(SCCCCCCCC)n1 [Compound D7S8S12]	1.3
CCCCCCCCCSc1nc(NCCCCCC)nc(NCCN(CC)CC)n1 [Compound D7S9N6]	0.6
CCCCCCCCCSc1nc(NCCCCCCC)nc(NCCN(CC)CC)n1 [Compound D7S9N7]	1.6
